In patent publication US20230120205A1, “NERVE CELL DEGENERATION INHIBITOR” (KYOTO UNIVERSITY, priority 2020, published 2023):

System: ALS7 (C9orf72) cell-derived motor neurons
Assay: RNA foci inhibitory activity (FISH with Cy3 probe, high-content analysis)
Assay type: cell-based, human
Conditions: one day after addition, vs DMSO
Description: Using ALS7 (C9orf72) cell line described in K. Imamura et al, Science Translational Medicine 2017, 9, eaaf3962, the effect of the compound used in the present invention on RNA foci was examined. The cell line is stable cell line prepared by introducing the tetracycline-induced Lhx3, Ngn2 and Isl1 genes into iPS cell lines established from a familial ALS patient with abnormal expansion of the G4C2 repeat of the C9orf72 gene. Therefore, ALS7 (C9orf72) cell is an ALS cell model that rapidly (within about 7 days) differentiates into motor neurons when tetracycline or a derivative thereof is added to the medium, and after differentiation, spontaneously goes on to cell death (see the above documents). […] ALS7 (C9orf72) cells were cultured on feeder cells (mitomycin-treated SNL cells) using an iPS cell maintenance medium consisting of Primate ES Cell medium (ReproCell, […]), 4 ng/ml hbFGF (Wako, 060-04543), 50 μg/ml G418 (Nacalai, 09380-86) and Penicillin-Streptomycin (Thermo Fisher Scientific, 15140-122). The method for seeding ALS7 (C9orf72) cells on an assay plate is as follows. Matrigel (BD Falcon, D2650) was diluted 20-fold with an assay medium consisting of DMEM/F-12 (1:1) (Thermo Fisher Scientific, 11330-057), N2 supplement (Thermo Fisher Scientific, 17502-048), Penicillin-Streptomycin (Thermo Fisher Scientific, 15140-122), 10 ng/ml recombinant human BDNF (PeproTech, 450-02), 10 ng/ml recombinant human GDNF (PeproTech, 450-10), 10 ng/ml recombinant human NT-3 (PeproTech, 450-03), 1 μM Retinoic acid (Sigma, R2625), 1 μg/ml Doxycycline (Clontech, 631311), 1 μM SAG (Enzo life sciences, ALX-270-426-M001) and 10 μ[…] (Wako, 253-00513), and then a 384-well plate (CellCarrier-384 Ultra, PerkinElmer, 6057300) was coated with the diluted solution. The ALS7 (C9orf72) cells were then suspended in the assay medium, and seeded on the matrigel-coated assay plate at 1×10^4 cells per well. The fluorescent staining method of RNA foci in motor neurons differentiated from ALS7 (C9orf72) cells is as follows. For the ALS7 (C9orf72) cells seeded on the assay plate according to the method described in the previous section, the assay medium containing no Y-27632 was added to the plate four days after seeding, and the cells were cultured. Seven days after seeding, the assay medium (Retinoic Acid, Doxycycline, SAG, Y-27632-free) containing the test compound at a predetermined concentration was added to the plate by medium exchange, and one day after addition of the test compound, PFA (Wako, 163-20145) was added to the plate to fix the cells. After washing with PBS (Wako, 045-29795) was repeated three times, ice-cold methanol (Wako, 131-01826) was added to the plate, and the plate was allowed to stand for 10 minutes at room temperature. DNA probe [[NT] ID NO:1), SIGMA genosys, custom synthesis] was denatured at 80° C. for 75 sec, prepared to 2 μg/μL in a hybri buffer consisting of 50% formamide (Wako, 066-02301), 2×SSC (Nippon Gene, 319-90015), 50 mM sodium phosphate (TEKNOVA, […]), 10% Dextran sulfate (SIGMA, […]), 0.1 mg/mL yeast tRNA ([…], 15401029) and RNase free water (QIAGEN, 129112), and added to the plate, and the plate was allowed to stand at 37° C. for 16 to 24 hrs to bind the probe to the RNA foci. A wash buffer consisting of 50% formamide, 1×SSC and RNase free water was added to the plate, and the plate was allowed to stand at 37° C. for 30 minutes, followed by washing with PBS. Hoechst (invitrogen, H3569) diluted 5000-fold with by PBS was added to the plate, and the plate was allowed to stand for 20 minutes at room temperature to stain the cell nuclei, followed by washing with PBS. The RNA foci in the cell nuclei were detected by analyzing the above treated plate (measuring Cy3 fluorescence) with a high-content analyzer. The high-content analyzer used was Opera Phenix from PerkinElmer. […] The method for detecting the activity of the test compound is as follows.

| SMILES | RNA foci inhibitory activity % (1 μM test compound) [%] | RNA foci inhibitory activity % (3 μM test compound) [%] | RNA foci inhibitory activity % (10 μM test compound) [%] |
| --- | --- | --- | --- |
| COc1cc(F)ccc1-c1ncnc(Nc2cccc(CS(C)(=N)=O)c2)n1 (stereo not drawn) [Compound No. 1, 4-(4-fluoro-2-methoxyphenyl)-N-{3-[(S-methanesulfonimidoyl)methyl]phenyl}-1,3,5-triazin-2-amine] | 48 | 58 | 46 |
| COc1ccccc1-c1ncnc(Nc2cccc(CS(N)(=O)=O)c2)n1 [Compound No. 2, 1-(3-{[4-(2-methoxyphenyl)-1,3,5-triazin-2-yl]amino}phenyl)methanesulfonamide] | 20 | 49 | 55 |
| COc1cc(Cl)ccc1-c1ncnc(Nc2cccc(CS(N)(=O)=O)c2)n1 [Compound No. 3, 1-(3-{[4-(4-chloro-2-methoxyphenyl)-1,3,5-triazin-2-yl]amino}phenyl)methanesulfonamide] | 16 | 55 | 51 |
| NS(=O)(=O)Cc1cccc(Nc2ncnc(-c3ccccc3OCc3ccccc3)n2)c1.O=C(O)C(F)(F)F [Compound No. 4a, 1-[3-({4-[2-(benzyloxy)phenyl]-1,3,5-triazin-2-yl}amino)phenyl]methanesulfonamide trifluoroacetate] | 50 | 45 | 45 |
| NS(=O)(=O)Cc1cccc(Nc2ncnc(-c3ccccc3OCc3ccccc3)n2)c1 [Compound No. 4b, 1-[3-({4-[2-(benzyloxy)phenyl]-1,3,5-triazin-2-yl}amino)phenyl]methanesulfonamide] | 52 | 41 | 47 |
| CS(=N)(=O)Cc1cccc(Nc2ncnc(-c3ccccc3OCc3ccc(Cl)c(Cl)c3)n2)c1 (stereo not drawn) [Compound No. 5, 4-{2-[(3,4-dichlorophenyl)methoxy]phenyl}-N-{3-[(S-methanesulfonimidoyl)methyl]phenyl}-1,3,5-triazin-2-amine] | 61 | 44 | 50 |
| CCOC(=O)N=S(C)(=O)Cc1cccc(Nc2ncnc(-c3cccc4c3OCCO4)n2)c1 (stereo not drawn) [Compound No. 6, ethyl {[(3-{[4-(2,3-dihydro-1,4-benzodioxin-5-yl)-1,3,5-triazin-2-yl]amino}phenyl)methyl](methyl)oxo-λ^6-sulfanylidene}carbamate] | 62 | 48 | 48 |
| CCOC(=O)N=S(C)(=O)Cc1cccc(Nc2ncnc(-c3cccc4c3OCC4)n2)c1 (stereo not drawn) [Compound No. 7, ethyl {[(3-{[4-(2,3-dihydro-1-benzofuran-7-yl)-1,3,5-triazin-2-yl]amino}phenyl)methyl](methyl)oxo-λ^6-sulfanylidene}carbamate] | 47 | 55 | 43 |
